A word on the melting point: it is the temperature, or range, at which the solid turns liquid. The term EC50 denotes the concentration that produces a half-maximal response.

For data set [1], the target named is ligand binding domain of the estrogen receptor beta chain (ERβLBD) that contained a point mutation at amino acid residue 418 (pm418) (Homo sapiens, UniProt Q92731). The data set can be described thus: ER agonist cell assay (ERβ), Huh-7 co-transfection, luciferase. The data set is classed as cell-based. The settings on record: for EC50: Huh-7 cells co-transfected with pG5luc and ERβLBD(pm418), overnight incubation, luciferase; for ERβ % of Max E2 Response: percent of the maximum estradiol fold change, Huh-7, pG5luc and ERβLBD(pm418). The protocol: (§1) The compounds ability to mimic the effects of estrogen on the estrogen receptor were determined in a whole cell assay as described immediately below.
(§2) Experimental Procedure for ER Agonist Cell Assay
(§3) • Cell line and plasmids: The human hepatoma cell line Huh-7 was used for co-transfections. Cells were maintained in culture medium and split when they reached 80-90% confluency. Three plasmids were routinely used in the assay. pG5luc contained the firefly luciferase gene and was obtained from Promega. […] Cell Culture Media and Reagents:
(§4) Culture medium: DMEM (phenol red free), 10% charcoal treated HyClone serum, 1% L-glutamine, and 1% penicillin/streptomycin
(§5) Transfection medium: DMEM (phenol red free) and 10% charcoal treated HyClone serum
(§6) Luciferase reagents: Dual-Glo Luciferase Kit (Promega cat #E2980) was used for determination of luciferase activity.
(§7) Transient transfections were preformed using the lipophilic reagent FuGENE 6 (Roche). Cells were split and seeded at 7.2×10^6/150 cm^2 flask in 20 mL of transfection medium. 5-6 hrs later cells were co-transfected with either pG5luc and ERαLBD or pG5luc and ERβLBD(pm418). Transfected cells grew overnight and were then used the next day.
(§8) Cells transfected 24 hrs earlier were harvested, counted, and seeded in wells containing compound at a density of 1×10^4 cells/well. […] Cells were incubated overnight at 37° C. and 5% CO2 in the presence of compound. The following day medium was aspirated from the wells and 100 ul of Dual-Glo™ Luciferase Reagent were added to each well. Plates were incubated at room temperature for 20 minutes and firefly luminescence was measured on a luminometer. Next, 50 ul of Dual-Gbo™ Stop & Glo® Reagent were added to each well and after 20 minutes at room temperature the Renilla luminescence was measured on a luminometer. Values from each well were normalized by dividing the firefly luminescence by the Renilla luminescence. Estradiol was used as the standard and run in each assay. The fold induction over background for each compound was compared to the maximum fold induction for estradiol in each assay. […] Those compounds that were not tested, or the data was unavailable are marked as NT.

Data set [2] has as its system hairless female SKH, 1-hr mice. The data set can be described thus: Animal model for reversal of wrinkles: skin thickness model, topical dosing, skin thickness and hyaluronic acid. Type of data set: in vivo, mouse. The following applies: QD, three days. The text has this: Animal Model for Reversal of Wrinkles
Uzuka et al. describes an increase in mouse back skin water content, hyaluronic acid (HA) content, and hyaluronic acid synthetase activity following topical application or subcutaneous injection of estradiol (Biochimica et Biophysica Acta, 627, 199-206, 1980; Biochimica et Biophysica Acta 673, 387-393, 1981). […] Thus, this model may be used to as a preliminary screen to assess the potential for estrogen modulators to alleviate wrinkles in human skin.
The skin thickness model uses hairless female SKH, 1-hr mice. Mice aged to approximately 11 weeks are introduced into the laboratory environment and acclimated for at least 1 week prior to use in the study may be used. Each group typically consisted of 7 animals that may be run in parallel with vehicle and the positive control estradiol. Based on binding and/or cellular assay data, compounds are chosen for screening in this model. Those compounds include the products of Examples, 2, 9, 15, 46, 47, 48, 51, 52, 61, 135, and 137. Prior to topical application to mouse dorsal skin, a sufficient quantity of each compound is dissolved in a solvent generally consisting of ethanol and propylene glycol (70/30% v/v) (vehicle) to achieve the final concentration specified in Table C below. Animals are dosed topically QD or BID, for three days. Each dose consisted of 100 microliters of vehicle or drug applied uniformly to the entire dorsal surface (˜18 cm^2). All animals are sacrificed approximately 18-24 hours after the final dose. Skin thickness (ST) is measured using a caliper. HA is extracted from the skin and quantitated using commercially-available enzyme-linked immunosorbent assays (ELISAs)(HA).
Data are presented as percent of the estradiol response after subtracting out the ST for vehicle-treated mouse skin. The estradiol response is set to 100% and the vehicle resoibse becines 0%.

In data set [3] the target is T1, ligand binding domain of the estrogen receptor alpha chain (ERαLBD) (Homo sapiens, UniProt P03372).
T1 construct: expressed in transfected cells; host or cells: Huh-7 human hepatoma cells, transient transfection with FuGENE 6
T1 sequence (P03372 311-547 limits assumed): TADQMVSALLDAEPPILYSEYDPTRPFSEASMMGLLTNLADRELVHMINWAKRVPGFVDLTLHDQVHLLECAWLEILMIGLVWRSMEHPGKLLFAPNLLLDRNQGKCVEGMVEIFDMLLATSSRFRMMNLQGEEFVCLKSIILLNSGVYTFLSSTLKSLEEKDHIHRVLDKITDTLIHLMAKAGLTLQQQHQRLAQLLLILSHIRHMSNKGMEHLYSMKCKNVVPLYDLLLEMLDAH
The data set can be described thus: ER agonist cell assay (ERα), Huh-7 co-transfection, luciferase. The data set is classed as cell-based. The settings on record: for EC50: Huh-7 cells co-transfected with pG5luc and ERαLBD, overnight incubation, luciferase; for ERα % of Max E2 Response: percent of the maximum estradiol fold change, Huh-7, pG5luc and ERαLBD. As to the method: as §1, §2, §3, §4, §5, §6, §7, §8

Compound `C[C@H](O)C1(c2onc(-c3ccc(O)cc3)c2-c2ccccc2)CC1` [Example 100, Alt. D, (S)-(+)-4-{5-[1-(1-Hydroxy-ethyl)-cyclopropyl]-4-phenyl-isoxazol-3-yl}-phenol] gave a melting point of 220 to 221 °C.
The compound `CC1(c2onc(-c3ccc(O)cc3)c2-c2ccccc2)CC1` [Example 36, 4-[5-(1-methyl-cyclopropyl)-4-phenyl-isoxazol-3-yl]phenol] displayed a melting point of 212 to 214 °C.
The compound `Cl.Oc1ccc(-c2noc(C3(CNc4ccncc4)CC3)c2-c2ccccc2)cc1` registered a melting point of 316 to 317 °C.
For “1-[3-(4-Hydroxy-phenyl)-4-phenyl-isoxazol-5-yl]-cyclopropanecarboxylic acid isopropyl ester [Example 61]”, in data set [1], the EC50 was over 10000 nM and the “ERβ % of Max E2 Response” value is reported as over 1.83%. For the same compound, in data set [2] (3% topical), the “HA (hyaluronic acid), percent of the estradiol response” value (“HA (hyaluronic acid), percent” for short) came to 38% and the “ST (skin thickness), percent of the estradiol response” value (“ST (skin thickness), percent” below) is 32%. For the same compound, in data set [3], it took 75 nM to reach a half-maximal effect (EC50) and the “ERα % of Max E2 Response” value amounted to 21.1%.
Compound `Cl.Oc1ccc(-c2noc(C3(CN4CCSCC4)CC3)c2-c2ccccc2)cc1` [Example 32, 4-[4-Phenyl-5-(1-thiomorpholin-4-ylmethyl-cyclopropyl)-isoxazol-3-yl]-phenol hydrochloride salt] yielded a melting point of 249 to 250 °C. In data set [1], the half-maximal effective concentration (EC50) came to 19.5 nM and the “ERβ % of Max E2 Response” value was 0.999%. Further, in data set [3], the EC50 came out at 22.9 nM and the “ERα % of Max E2 Response” value was found to be 38.5%.
In the case of `CCCOCC1(c2onc(-c3ccc(O)cc3)c2-c2ccccc2)CC1` [Example 9, 4-[4-Phenyl-5-(1-propoxymethyl-cyclopropyl)-isoxazol-3-yl]-phenol], in data set [1], the concentration giving a half-maximal response (EC50) amounted to 41.3 nM and the “ERβ % of Max E2 Response” value turned out to be 2.63%. Further, in data set [2] (3% topical), the “HA (hyaluronic acid), percent” value was 58% and the “ST (skin thickness), percent” value is given as 49%. In data set [3], the EC50 came to 177 nM and the “ERα % of Max E2 Response” value amounted to 40.2%.
As for `Cl.Oc1ccc(-c2noc(C3(CNc4ccc5c(c4)CCC5)CC3)c2-c2ccccc2)cc1` [Example 23, 4-{5-[1-(Indan-5-ylaminomethyl)-cyclopropyl]-4-phenyl-isoxazol-3-yl}-phenol hydrochloride salt], the melting point lay within 204 to 205 °C. In data set [1], the EC50 turned out to be 3860 nM and the “ERβ % of Max E2 Response” value was determined as 5.5%. Also, in data set [3], the EC50 was 559 nM and the “ERα % of Max E2 Response” value is 21%.
For `Oc1ccc(-c2noc(C3CC3)c2-c2ccccc2)cc1` [Example 35, 4-(5-Cyclopropyl-4-phenyl-isoxazol-3-yl)-phenol] the same measures were 197 to 200 °C, 130 nM, 5.78%, 171 nM and 25%.
Compound `Oc1ccc(-c2noc(C3(C[n+]4ccccc4)CC3)c2-c2ccccc2)cc1.[Cl-]` returned a melting point of 244 to 245 °C.
Regarding `CCOc1ncccc1OCC1(c2onc(-c3ccc(O)cc3)c2-c2ccccc2)CC1` [Example 6, 4-{5-[1-(2-Ethoxy-pyridin-3-yloxymethyl)-cyclopropyl]-4-phenyl-isoxazol-3-yl}-phenol], the melting point lay within 190 to 192 °C. Also, in data set [1], the EC50 was over 10000 nM and the “ERβ % of Max E2 Response” value was over 3.19%. For the same compound, in data set [3], a half-maximal response (EC50) required 237 nM and the “ERα % of Max E2 Response” value stood at 9.48%.
The compound `CCC(NCC1(c2onc(-c3ccc(O)cc3)c2-c2ccccc2)CC1)c1ccccc1` (racemic) [Example 25, (±)-4-(4-Phenyl-5-{1-[(1-phenyl-propylamino)-methyl]-cyclopropyl}-isoxazol-3-yl)-phenol] yielded a melting point of 126 to 127 °C. Further, in data set [1], the EC50 is over 10000 nM and the “ERβ % of Max E2 Response” value is reported as over 0.571%. For the same compound, in data set [3], the EC50 stood at 26.5 nM and the “ERα % of Max E2 Response” value was found to be 18.2%.
As for `CC(O)C1(c2onc(-c3ccc(O)cc3)c2-c2ccccc2)CC1` (racemic) [Example 45, (±)-4-{5-[1-(1-Hydroxy-ethyl)-cyclopropyl]-4-phenyl-isoxazol-3-yl}-phenol], the melting point fell in the range of 196 to 197 °C. Moreover, in data set [1], the EC50 came out at 46.7 nM and the “ERβ % of Max E2 Response” value is listed as 81.2%. Besides, in data set [3], a half-maximal response (EC50) required 47.5 nM and the “ERα % of Max E2 Response” value came out at 79.3%.
For the compound `O=C(OCC1(c2onc(-c3ccc(O)cc3)c2-c2ccccc2)CC1)C1CC1` [Example 51], in data set [1], a half-maximal response (EC50) required 84.2 nM and the “ERβ % of Max E2 Response” value was determined as 75.2%. For the same compound, in data set [2] (1% topical), the “HA (hyaluronic acid), percent” value was 35% and the “ST (skin thickness), percent” value is 19%. Further, in data set [3], the response was half-maximal at 152 nM (EC50) and the “ERα % of Max E2 Response” value is 63.8%.
Consider `CN(C)CC1(c2onc(-c3ccc(O)cc3)c2-c2ccccc2)CC1.Cl`, for which the melting point was 234 °C.
The same measure, in the same setting: the result for `Oc1ccc(-c2noc(C3(CNCC4CCCO4)CC3)c2-c2ccccc2)cc1` (racemic) [Example 30, (±)-4-[4-Phenyl-5-(1-{[(tetrahydro-furan-2-ylmethyl)-amino]-methyl}-cyclopropyl)-isoxazol-3-yl]-phenol] reads 276 to 277 °C.
Turning to `CCCC(O)C1(c2onc(-c3ccc(O)cc3)c2-c2ccccc2)CC1` (racemic) [Example 15, (±)-4-{5-[1-(1-Hydroxy-butyl)-cyclopropyl]-4-phenyl-isoxazol-3-yl}-phenol], in data set [1], it took 150 nM to reach a half-maximal effect (EC50) and the “ERβ % of Max E2 Response” value was 15.6%. Also, in data set [2] (3% topical), the “HA (hyaluronic acid), percent” value worked out at 47% and the “ST (skin thickness), percent” value turned out to be 41%. Also, in data set [3], the response was half-maximal at 24.3 nM (EC50) and the “ERα % of Max E2 Response” value came out at 43.8%.
Turning to `CC(C)C(=O)OCC1(c2onc(-c3ccc(O)cc3)c2-c2ccccc2)CC1` [Example 52], in data set [1], the response was half-maximal at 117 nM (EC50) and the “ERβ % of Max E2 Response” value worked out at 121%. Further, in data set [2] (3% topical), the “HA (hyaluronic acid), percent” value was found to be 34% and the “ST (skin thickness), percent” value turned out to be 21%. Further, in data set [3], a half-maximal response (EC50) required 138 nM and the “ERα % of Max E2 Response” value came to 66%.
For the compound `CC[C@H](O)C1(c2onc(-c3ccc(O)cc3)c2-c2ccccc2)CC1` [Example 100, Alt. F, (S)-(+)-4-{5-[1-(1-hydroxy-propyl)-cyclopropyl]-4-phenyl-isoxazol-3-yl}-phenol], the melting point lay in the range of 165 to 166 °C.
The same measure, in the same setting: the result for `NCC1(c2onc(-c3ccc(O)cc3)c2-c2ccccc2)CC1` [Example 105, 4-{5-[1-(Aminomethyl)cyclopropyl]-4-phenylisoxazol-3-yl}phenol] reads 220 to 225 °C.
Still for that read-out and setting: the result for `Cl.Oc1ccc(-c2noc(C3(CN4CCCNCC4)CC3)c2-c2ccccc2)cc1` reads 193 to 194 °C.

Source of the values: patent publication US7470715B2, “Estrogen modulators” (Pfizer Inc., priority 2005, dated 2008).
